From PMC11149885 (PLOS ONE, 2024)
Values joined by “and” are separate entries in the source; they are usually repeats but may differ in a detail not shown here. Identical values can stand only once. One block for each compound: values may come before it.

Experiments:
[1] = target: T1, VEGFR1 (Homo sapiens, UniProt P17948)
[2] = target: T2, TIE2 (Homo sapiens, UniProt Q02763); assay: HotSpot kinase screen; assay type: biochemical; parameters: purchased Reaction Biology Corporation (contract assay); conditions: 10μM ATP
T2 sequence (Q02763 23-1124): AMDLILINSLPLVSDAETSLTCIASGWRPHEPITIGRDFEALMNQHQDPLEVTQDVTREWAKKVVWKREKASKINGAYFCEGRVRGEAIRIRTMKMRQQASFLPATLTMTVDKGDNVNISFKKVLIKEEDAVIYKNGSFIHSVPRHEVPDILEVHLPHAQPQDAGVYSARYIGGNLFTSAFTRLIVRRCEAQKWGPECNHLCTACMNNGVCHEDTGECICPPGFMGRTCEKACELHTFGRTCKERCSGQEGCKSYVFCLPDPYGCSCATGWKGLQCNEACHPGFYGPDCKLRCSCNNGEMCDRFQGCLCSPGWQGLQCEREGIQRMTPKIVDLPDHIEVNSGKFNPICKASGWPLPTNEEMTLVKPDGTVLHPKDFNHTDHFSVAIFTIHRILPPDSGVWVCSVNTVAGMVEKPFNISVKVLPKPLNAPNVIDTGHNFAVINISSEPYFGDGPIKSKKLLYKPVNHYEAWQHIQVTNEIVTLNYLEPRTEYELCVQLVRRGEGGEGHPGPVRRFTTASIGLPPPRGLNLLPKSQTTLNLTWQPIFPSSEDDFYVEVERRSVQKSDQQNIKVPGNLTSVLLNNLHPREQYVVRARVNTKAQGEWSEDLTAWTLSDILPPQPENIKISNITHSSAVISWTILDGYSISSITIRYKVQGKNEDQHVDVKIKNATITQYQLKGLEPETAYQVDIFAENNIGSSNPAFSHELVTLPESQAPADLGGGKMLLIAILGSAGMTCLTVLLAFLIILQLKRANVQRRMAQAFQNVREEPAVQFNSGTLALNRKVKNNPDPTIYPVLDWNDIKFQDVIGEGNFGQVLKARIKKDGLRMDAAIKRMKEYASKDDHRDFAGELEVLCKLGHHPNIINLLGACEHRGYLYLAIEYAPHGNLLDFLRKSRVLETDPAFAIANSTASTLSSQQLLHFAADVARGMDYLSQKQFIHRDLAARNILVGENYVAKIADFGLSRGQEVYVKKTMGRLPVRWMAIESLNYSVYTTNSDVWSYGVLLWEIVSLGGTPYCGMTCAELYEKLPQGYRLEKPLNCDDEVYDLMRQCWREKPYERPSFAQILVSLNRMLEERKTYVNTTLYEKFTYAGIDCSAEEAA

[3] = target: T1, VEGFR1; assay: HotSpot kinase screen; assay type: biochemical; parameters: purchased Millipore Corporation (Dundee, Scotland) or Reaction Biology Corporation (contract assay); conditions: 10μM ATP
Protocol: (§1) Measurement of kinase activity was performed by Reaction Biology Corporation (Reaction Biology Corporation, Malvern, PA), using the HotSpot™ assay. The screen focused on RTKs reported in the literature to play a major role in the regulation of angiogenesis (VEGFR1, VEGFR2, and VEGFR3; fibroblast growth factor receptor [FGFR] 1, 2, and 3; and platelet-derived growth factor receptor beta [PDGFRβ]) as well as an RTK essential for maintaining blood vessel stability (TIE2). For the profiling, specific kinase/substrate pairs and required cofactors were prepared in a reaction buffer (20mM Hepes [pH 7.5], 10mM MgCl2, 1mM EGTA, 0.02% Brij35, 0.02 mg/mL BSA, 0.1mM Na3VO4, 2mM DTT, 1% dimethyl sulfoxide [DMSO]). TKI compounds were diluted to 10μM and 1μM concentrations for the screens and after addition to the reaction buffer incubated for 20 minutes, followed by the addition of a mixture of ATP (Sigma, St. Louis, MO) and ^33P-ATP (Perkin Elmer, Waltham, MA) to a final ATP concentration of 10μM. Reactions were carried out at room temperature for 2 hours, followed by spotting of the reactions onto P81 ion exchange filter paper (Whatman Inc., Piscataway, NJ). Unbound phosphate was removed by extensive washing of the filters. […] Kinome TREEspot images representing levels of inhibition were prepared using Kinome Mapper (https://www.reactionbiology.com/resources/tools/kinase-mapper).

[4] = target: T1, VEGFR1; assay: Ten-dose IC50 measurement; conditions: 10μM ATP
[5] = target: T2, TIE2
[6] = target: T3, VEGFR2 (Homo sapiens, UniProt P35968); assay: Ten-dose IC50 measurement; assay type: biochemical; conditions: 10μM ATP
T3 construct: purchased Millipore Corporation (Dundee, Scotland) or Reaction Biology Corporation (contract assay)
T3 sequence (P35968 20-1356): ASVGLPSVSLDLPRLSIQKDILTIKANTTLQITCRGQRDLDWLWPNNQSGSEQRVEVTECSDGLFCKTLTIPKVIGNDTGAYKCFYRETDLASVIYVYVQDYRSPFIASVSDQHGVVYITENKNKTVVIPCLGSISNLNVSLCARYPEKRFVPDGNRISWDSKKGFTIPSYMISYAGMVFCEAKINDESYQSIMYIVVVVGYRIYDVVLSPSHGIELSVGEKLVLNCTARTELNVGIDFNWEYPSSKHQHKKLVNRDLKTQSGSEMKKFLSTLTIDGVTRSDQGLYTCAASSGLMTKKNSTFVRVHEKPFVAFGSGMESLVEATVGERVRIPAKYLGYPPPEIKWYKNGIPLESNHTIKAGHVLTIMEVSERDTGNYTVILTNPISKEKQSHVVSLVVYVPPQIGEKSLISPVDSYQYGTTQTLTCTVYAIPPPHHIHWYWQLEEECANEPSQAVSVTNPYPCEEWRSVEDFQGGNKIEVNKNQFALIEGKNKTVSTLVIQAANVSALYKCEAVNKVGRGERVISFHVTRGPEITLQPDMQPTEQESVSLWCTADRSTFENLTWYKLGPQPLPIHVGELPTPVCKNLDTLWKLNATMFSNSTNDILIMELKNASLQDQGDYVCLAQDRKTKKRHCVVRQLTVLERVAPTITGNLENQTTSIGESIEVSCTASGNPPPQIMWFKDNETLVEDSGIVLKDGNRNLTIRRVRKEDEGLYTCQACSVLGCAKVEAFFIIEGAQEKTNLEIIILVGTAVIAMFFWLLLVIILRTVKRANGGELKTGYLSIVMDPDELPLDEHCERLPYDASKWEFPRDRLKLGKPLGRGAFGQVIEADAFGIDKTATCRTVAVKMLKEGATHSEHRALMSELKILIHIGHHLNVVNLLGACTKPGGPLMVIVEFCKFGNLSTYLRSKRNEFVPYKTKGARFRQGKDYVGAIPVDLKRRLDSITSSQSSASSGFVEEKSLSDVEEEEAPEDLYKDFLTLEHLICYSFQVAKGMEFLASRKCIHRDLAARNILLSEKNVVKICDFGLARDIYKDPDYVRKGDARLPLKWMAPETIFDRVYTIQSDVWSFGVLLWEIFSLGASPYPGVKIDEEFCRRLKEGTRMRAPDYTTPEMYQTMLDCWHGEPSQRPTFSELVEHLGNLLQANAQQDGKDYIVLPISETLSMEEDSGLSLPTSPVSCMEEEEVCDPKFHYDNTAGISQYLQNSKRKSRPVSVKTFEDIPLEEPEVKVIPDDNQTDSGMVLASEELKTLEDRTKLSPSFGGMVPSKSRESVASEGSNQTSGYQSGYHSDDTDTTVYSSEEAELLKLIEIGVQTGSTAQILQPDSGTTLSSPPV

[7] = target: T3, VEGFR2; assay: HotSpot kinase screen; assay type: biochemical; conditions: 10μM ATP
[8] = target: T2, TIE2; assay: Ten-dose IC50 measurement; conditions: 10μM ATP
[9] = target: T4, FGFR2 (Homo sapiens, UniProt P21802); assay: HotSpot kinase screen; assay type: biochemical; conditions: 10μM ATP
T4 construct: purchased Reaction Biology Corporation (contract assay)
Protocol: as §1

[10] = target: T5, VEGFR3 (Homo sapiens, UniProt P35916); assay: HotSpot kinase screen; assay type: biochemical; conditions: 10μM ATP
T5 construct: purchased Millipore Corporation (Dundee, Scotland) or Reaction Biology Corporation (contract assay)
T5 sequence (P35916 25-1363): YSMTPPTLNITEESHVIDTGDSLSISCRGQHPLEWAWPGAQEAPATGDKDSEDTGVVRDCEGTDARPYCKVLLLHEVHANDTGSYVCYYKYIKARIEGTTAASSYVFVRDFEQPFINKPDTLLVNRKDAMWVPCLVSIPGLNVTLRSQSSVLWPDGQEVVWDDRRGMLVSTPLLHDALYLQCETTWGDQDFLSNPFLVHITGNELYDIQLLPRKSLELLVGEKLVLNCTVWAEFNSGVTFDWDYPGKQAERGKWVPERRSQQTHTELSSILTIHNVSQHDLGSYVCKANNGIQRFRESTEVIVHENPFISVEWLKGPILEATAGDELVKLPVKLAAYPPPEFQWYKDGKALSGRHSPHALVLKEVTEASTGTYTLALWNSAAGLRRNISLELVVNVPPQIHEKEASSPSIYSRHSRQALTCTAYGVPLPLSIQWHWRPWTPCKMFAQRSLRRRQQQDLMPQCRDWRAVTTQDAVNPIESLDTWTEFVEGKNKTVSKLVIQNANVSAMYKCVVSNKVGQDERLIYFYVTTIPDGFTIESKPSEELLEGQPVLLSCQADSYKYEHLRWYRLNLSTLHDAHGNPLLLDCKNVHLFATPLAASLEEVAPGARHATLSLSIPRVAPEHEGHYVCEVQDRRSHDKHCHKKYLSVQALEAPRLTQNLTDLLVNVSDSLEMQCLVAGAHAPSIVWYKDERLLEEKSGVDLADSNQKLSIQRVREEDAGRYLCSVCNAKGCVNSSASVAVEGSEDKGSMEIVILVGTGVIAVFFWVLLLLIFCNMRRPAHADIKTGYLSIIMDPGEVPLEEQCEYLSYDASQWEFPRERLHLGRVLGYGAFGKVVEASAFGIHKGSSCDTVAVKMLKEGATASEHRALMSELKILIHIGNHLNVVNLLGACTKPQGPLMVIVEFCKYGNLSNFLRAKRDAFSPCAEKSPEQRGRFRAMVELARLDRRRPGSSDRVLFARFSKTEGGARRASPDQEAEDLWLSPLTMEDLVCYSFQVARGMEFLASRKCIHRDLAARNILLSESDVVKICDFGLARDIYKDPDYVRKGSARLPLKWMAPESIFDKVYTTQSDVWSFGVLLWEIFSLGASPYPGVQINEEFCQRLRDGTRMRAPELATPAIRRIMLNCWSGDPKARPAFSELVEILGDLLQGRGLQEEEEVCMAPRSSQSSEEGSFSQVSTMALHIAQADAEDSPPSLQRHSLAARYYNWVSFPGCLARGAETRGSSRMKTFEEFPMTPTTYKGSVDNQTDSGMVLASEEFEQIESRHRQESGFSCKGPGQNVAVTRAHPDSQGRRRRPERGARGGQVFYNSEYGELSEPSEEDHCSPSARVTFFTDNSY
Protocol: as §1

[11] = test system: VEGF-A–induced sprouting of HUVECs; assay: HUVEC spheroid sprouting assay; assay type: cell-based, human; conditions: for cumulative sprout length per spheroid (CSL), mean: 25 ng/mL VEGF-165, 24 hours
Protocol: The three TKI compounds were tested by Reaction Biology Europe (Freiburg, Germany) in the spheroid-based cellular angiogenesis assay to determine their effect on VEGF-A–induced sprouting of HUVECs. Primary HUVECs from pooled donors at passage 3 to 4 (PromoCell, Heidelberg, Germany) were grown in endothelial cell growth and basal medium (ECGM/ECBM, PromoCell). Test compounds were prepared as 100-fold concentrated stock solutions in DMSO and pre-diluted in basal medium. HUVECs were stimulated using 25 ng/mL VEGF-165 (Reaction Biology Europe, Freiburg, Germany) pre-diluted in basal medium.
Spheroids were prepared as described by pipetting 400 HUVECs in a hanging drop on plastic dishes to allow overnight spheroid aggregation. Fifty HUVEC spheroids were seeded in 0.9 mL of a collagen gel and pipetted into individual wells of a 24-well plate to allow polymerization. Test compounds and VEGF-165 were added after 30 minutes by pipetting 100 μL of a ten-fold concentrated solution onto the polymerized gel. Plates were incubated at 37°C for 24 hours, and cells were fixed by adding 4% paraformaldehyde (Roth, Karlsruhe, Germany). Sprouting intensity of HUVEC spheroids treated with the test samples was quantitated using an image analysis system to determine the cumulative sprout length (CSL) per spheroid. Images of single spheroids were captured using an inverted microscope and the digital imaging software NIS-Elements BR 3.0 (Nikon). Spheroid pictures were uploaded to Wimasis (www.wimasis.com) for image analysis. The CSL of each spheroid was determined using the imaging analysis tool WimSprout. The mean CSL of ten randomly selected spheroids was analyzed as an individual data point.

[12] = test system: VEGF-induced angiogenesis on the CAM; assay: Gelatin sponge chick chorioallantoic membrane (CAM) assay
[13] = target: T5, VEGFR3; assay: Ten-dose IC50 measurement; assay type: biochemical; conditions: 10μM ATP
[14] = synthetic melanin, 0.06 to 25.0μM, 37°C, 1 hour, ± SEM

T1 sequence (P17948 27-1338): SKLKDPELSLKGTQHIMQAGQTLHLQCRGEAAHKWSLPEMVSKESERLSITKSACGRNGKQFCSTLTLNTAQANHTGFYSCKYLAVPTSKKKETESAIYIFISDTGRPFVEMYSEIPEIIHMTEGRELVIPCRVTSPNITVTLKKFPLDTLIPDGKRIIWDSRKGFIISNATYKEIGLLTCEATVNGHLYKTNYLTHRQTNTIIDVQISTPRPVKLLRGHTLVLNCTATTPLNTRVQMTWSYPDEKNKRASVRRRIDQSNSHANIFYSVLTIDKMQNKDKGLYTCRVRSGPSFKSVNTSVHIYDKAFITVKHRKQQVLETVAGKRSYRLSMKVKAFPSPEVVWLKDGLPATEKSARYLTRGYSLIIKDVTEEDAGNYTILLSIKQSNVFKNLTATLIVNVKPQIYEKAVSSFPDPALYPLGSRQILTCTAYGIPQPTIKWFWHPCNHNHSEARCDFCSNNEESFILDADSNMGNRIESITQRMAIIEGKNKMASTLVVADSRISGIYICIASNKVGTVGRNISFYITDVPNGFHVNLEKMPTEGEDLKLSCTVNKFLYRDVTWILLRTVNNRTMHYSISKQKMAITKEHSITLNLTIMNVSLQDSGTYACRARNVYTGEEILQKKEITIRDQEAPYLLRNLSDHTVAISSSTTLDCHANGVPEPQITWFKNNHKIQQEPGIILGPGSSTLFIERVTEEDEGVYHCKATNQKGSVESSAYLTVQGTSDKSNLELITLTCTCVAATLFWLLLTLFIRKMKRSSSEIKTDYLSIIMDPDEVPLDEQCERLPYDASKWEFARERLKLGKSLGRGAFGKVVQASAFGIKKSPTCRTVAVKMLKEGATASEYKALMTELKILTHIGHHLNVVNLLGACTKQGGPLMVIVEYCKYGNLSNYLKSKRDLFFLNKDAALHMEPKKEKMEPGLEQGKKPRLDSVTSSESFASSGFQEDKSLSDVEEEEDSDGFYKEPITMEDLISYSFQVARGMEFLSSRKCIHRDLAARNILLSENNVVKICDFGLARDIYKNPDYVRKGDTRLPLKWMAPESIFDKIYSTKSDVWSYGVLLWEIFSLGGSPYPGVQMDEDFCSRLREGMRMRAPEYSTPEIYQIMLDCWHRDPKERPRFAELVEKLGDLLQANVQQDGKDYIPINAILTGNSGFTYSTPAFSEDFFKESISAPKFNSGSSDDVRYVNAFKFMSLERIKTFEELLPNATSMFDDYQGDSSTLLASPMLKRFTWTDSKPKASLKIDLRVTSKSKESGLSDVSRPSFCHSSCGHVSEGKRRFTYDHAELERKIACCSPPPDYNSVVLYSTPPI

activity [1]: 5.07%
Avg % Inhibition TIE2 ([2]; 1uM TKI): 81% and 81.47%
Avg % Inhibition TIE2 ([2]; 10uM TKI): 89% and 89.11%
Avg % Inhibition TIE2 ([2]; 10uM TKI, listed as axitinib): up to 89%
Avg % Inhibition VEGFR1 ([3]; 1uM TKI): 100%
Avg % Inhibition VEGFR1 ([3]; 10uM TKI): 97.53%
%Activity VEGFR1 ([4]; 1.00E-05 M TKI): -0.87%
%Activity VEGFR1 ([4]; 1.11E-06 M TKI): -0.31%
%Activity VEGFR1 ([4]; 1.37E-08 M TKI): 18.99%
%Activity VEGFR1 ([4]; 1.52E-09 M TKI): 42.18%
%Activity VEGFR1 ([4]; 3.33E-06 M TKI): -0.89%
%Activity VEGFR1 ([4]; 4.12E-08 M TKI): 9.96%
%Activity VEGFR1 ([4]; 4.57E-09 M TKI): 22.02%
%Activity VEGFR1 ([4]; 5.08E-10 M TKI): 59.50%
activity [5]: 60.1%
%Activity VEGFR2 ([6]; 1.00E-05 M TKI): 7.43%
%Activity VEGFR2 ([6]; 1.11E-06 M TKI): 4.53%
%Activity VEGFR2 ([6]; 1.23E-07 M TKI): 7.10%
%Activity VEGFR2 ([6]; 1.37E-08 M TKI): 13.24%
%Activity VEGFR2 ([6]; 1.52E-09 M TKI): 62.16%
%Activity VEGFR2 ([6]; 3.33E-06 M TKI): 6.81%
%Activity VEGFR2 ([6]; 3.70E-07 M TKI): 7.21%
%Activity VEGFR2 ([6]; 4.12E-08 M TKI): 8.44%
%Activity VEGFR2 ([6]; 4.57E-09 M TKI): 25.12%
%Activity VEGFR2 ([6]; 5.08E-10 M TKI): 84.02%
HillSlope VEGFR2 ([6]; IC50 curve fit): -1.18
Avg % Inhibition VEGFR2 ([7]; 1uM TKI): 100%
Avg % Inhibition VEGFR2 ([7]; 10uM TKI): 90.96%
%Activity TIE2 ([8]; 1.00E-05 M TKI): 10.50%
%Activity TIE2 ([8]; 1.11E-06 M TKI): 16.32%
%Activity TIE2 ([8]; 1.37E-08 M TKI): 87.12%
%Activity TIE2 ([8]; 1.52E-09 M TKI): 98.75%
%Activity TIE2 ([8]; 3.33E-06 M TKI): 7.06%
%Activity TIE2 ([8]; 3.70E-07 M TKI): 38.01%
%Activity TIE2 ([8]; 4.12E-08 M TKI): 78.65%
%Activity TIE2 ([8]; 4.57E-09 M TKI): 95.05%
%Activity TIE2 ([8]; 5.08E-10 M TKI): 95.58%
Avg % Inhibition FGFR2 ([9]; 1uM TKI): 93.95%
Avg % Inhibition FGFR2 ([9]; 10uM TKI): 98.81%
Avg % Inhibition VEGFR3 ([10]; 1uM TKI): 97.27%
Avg % Inhibition VEGFR3 ([10]; 10uM TKI): 99.21%
%Activity VEGFR3 ([13]; 1.00E-05 M TKI): 2.02%
%Activity VEGFR3 ([13]; 1.11E-06 M TKI): 2.44%
%Activity VEGFR3 ([13]; 1.37E-08 M TKI): 28.96%
%Activity VEGFR3 ([13]; 1.52E-09 M TKI): 56.16%
%Activity VEGFR3 ([13]; 3.33E-06 M TKI): 1.23%
%Activity VEGFR3 ([13]; 3.70E-07 M TKI): 5.72%
%Activity VEGFR3 ([13]; 4.57E-09 M TKI): 40.16%
%Activity VEGFR3 ([13]; 5.08E-10 M TKI): 63.17%
SMILES: CNC(=O)c1ccccc1Sc1ccc2c(/C=C/c3ccccn3)n[nH]c2c1 [Axitinib]
cumulative sprout length per spheroid (CSL), mean ([11]; 1.00E-05 M TKI): 259
cumulative sprout length per spheroid (CSL), mean ([11]; 1.00E-06 M TKI): 441
cumulative sprout length per spheroid (CSL), mean ([11]; 1.00E-07 M TKI): 459
cumulative sprout length per spheroid (CSL), mean ([11]; 3.00E-06 M TKI): 354
cumulative sprout length per spheroid (CSL), mean ([11]; 3.00E-07 M TKI): 373
cumulative sprout length per spheroid (CSL), mean ([11]; 3.00E-08 M TKI): 379
vessel sprouting (representative spheroid images) ([11]; highest test concentration of 1×10^–5M): zero vessel sprouting
Angiogenesis - Vessel number, Mean ([12]; TKI at 200 x VEGFR2 IC50): 11.1
Angiogenesis - Vessel number, individual egg ([12]; TKI at 200 x VEGFR2 IC50, one value per egg): 9.33 and 12.67 and 12 and 10.33
reduction of the number of blood vessels perfusing the sponges vs negative control ([12]; TKI at VEGFR2 IC50 dose): 24.6%
Angiogenesis - Vessel thickness score, Mean ([12]; TKI at VEGFR2 IC50 dose, score 0-3): 0.9
Angiogenesis - Vessel thickness score, individual egg ([12]; TKI at VEGFR2 IC50 dose, score 0-3, one value per egg): 0.33 and 1.33 and 0 and 1.67

Kd [14]: 3.06 ± 0.6 µM
SMILES: CCN(CC)CCCC(C)Nc1ccnc2cc(Cl)ccc12 (centres unmarked) [Chloroquine]
